According to patent publication US8648063B2, “Potentiation of cancer chemotherapy by 7-(2, 5-dihydro-4-imidazo [1, 2-a] pyridine-3-yl-2,5-dioxo-1H-pyrrol-3-yl)-9-fluoro-1,2,3,4 tetrahydro -2-(1-piperidinyl-carbonyl)-pyrrolo [3,2,1-jk] [1,4] benzodiazepine” (Eli Lilly and Company, priority 2007, dated 2014):

Columns and labels:
HCT-116 = assay: Caspase-3/7 apoptosis assay (Apo-ONE) in HCT-116; assay type: cell-based, human; details: 48 hrs
Excerpt: (§1) Apoptosis or programmed cell death is characterized by a set of biochemical reactions, one of which is the induction of caspases. Activated caspases are proteases that participate in a cascade of cleavage events that disable key enzymes responsible for cell homeostasis and repair. Caspases 3 and 7 play key effector roles in apoptosis and can be detected and measured by a fluorescent biochemical assay. The increase of Caspase-3/7 activity in cells is directly correlated to apoptotic activity. (D. W. Nicholson, et al., Nature, 376, 37-43 (1995)) The Promega Apo-ONE Homogeneous Caspase-3/7 Assay Kit was used (Catalog #G7791). The assay buffer consists of 30 mM HEPES (N-(2-hydroxyethyl)piperazine-M-(2-ethanesulfonic acid) pH 7.4, 150 mM NaCl, 50 mM KCl, 10 mM MgCl2, 0.4 mM EGTA (ethylene glycol tetraacetic acid), 0.5% Nonidet P40 (octylphenolpoly(ethyleneglycol ether)), 0.1% CHAPS (3-[(3-Cholamidopropyl)dimeth-ylammonio]-1-propanesulfonate hydrate and 10% sucrose, which lyses/permeabilizes cultured cells and a caspase 3/7 substrate, Z-DEVD (Z-Asp(OMe)-Glu(OMe)-Val-Asp(OMe)), coupled to a profluorescent rhodamine 110. When the buffer-substrate mixture is added to a test sample, the cleavage and subsequent removal of the DEVD peptides by caspase 3/7 activity results in intense fluorescence of the rhodamine 110 leaving group, which is detected by excitation at 499 nm. The amount of fluorescent product is proportional to the amount of caspase 3/7 cleavage activity in the sample.
(§2) To measure the apoptotic effect of test compounds, tumor cells are plated at 1×10^4 cells per well in 96 well plates and incubated overnight at 37° C., with 5% CO2. Tumor cells are treated with test compound at desired concentrations in triplicate, including untreated/negative control wells. The assay plates are re-incubated for 48 hrs. At the end of the incubation period, a mixture of the assay buffer and substrate is added to each sample well. The fluorescence in each well is measured at an excitation wavelength of 485+/−20 nm and an emission wavelength of 530+/−25 nm. The % increase of caspase activity in treated cells is calculated relative to untreated controls.
(§3) The data in Tables 1-12 are expressed as % increase of caspase activity relative to untreated controls unless otherwise noted.

Colo-205 = assay: Caspase-3/7 apoptosis assay (Apo-ONE) in Colo-205; assay type: cell-based, human; details: 48 hrs
Excerpt: as §1, §2, §3

A2780 = assay: Caspase-3/7 apoptosis assay (Apo-ONE) in A2780; assay type: cell-based, human
Excerpt: as §1
as §2, with “The assay plates are re-incubated for 48 hrs.” left out
as §3

AGS = assay: Caspase-3/7 apoptosis assay (Apo-ONE) in AGS; assay type: cell-based; details: Cmpd I 900 nM
Excerpt: as §1
as §2, with “The assay plates are re-incubated for 48 hrs.” left out
as §3

MKN 45 = assay: Caspase-3/7 apoptosis assay (Apo-ONE) in MKN 45; assay type: cell-based
Excerpt: as §1
as §2, with “The assay plates are re-incubated for 48 hrs.” left out
as §3

A549 = assay: Caspase-3/7 apoptosis assay (Apo-ONE) in A549; assay type: cell-based; details: Compound I 300 nM, 48 hrs
Excerpt: as §1, §2, §3

NCI-H460 = assay: Caspase-3/7 apoptosis assay (Apo-ONE) in NCI-H460; assay type: cell-based, human; details: 48 hrs
Excerpt: as §1, §2, §3

Calu-6 = assay: Caspase-3/7 apoptosis assay (Apo-ONE) in Calu-6; assay type: cell-based; details: 48 hrs
Excerpt: as §1, §2, §3

SKOV3 = assay: Caspase-3/7 apoptosis assay (Apo-ONE) in SKOV3; assay type: cell-based; details: Cmpd I 300 nM, Doxorubicin 1 μM, 48 hrs
Excerpt: as §1, with “The amount of fluorescent product is proportional to the amount of caspase 3/7 cleavage activity in the sample.” left out

KATO III = assay: Caspase-3/7 apoptosis assay (Apo-ONE) in KATO III; assay type: cell-based; details: Cmpd I 600 nM, Cisplatin 10 μM, 48 hrs
Excerpt: as §1, with “The amount of fluorescent product is proportional to the amount of caspase 3/7 cleavage activity in the sample.” left out

[1] = system: A2780 human ovarian carcinoma xenografts; assay: Tumor growth delay, A2780 xenografts; assay type: in vivo, CD-1 nu/nu mice; details: cisplatin 5 mg/kg IP, Compound I 5 mg/kg IV, alone or combined, 3 cycles separated by 7 days, time to 1000 mm^3 vs control
Description: (§4) Cultured cells are implanted subcutaneously in the rear flank of female CD-1 nu/nu strain mice which have been acclimated for one week in the animal facility after receipt from the vendor. Mice are randomized into groups of 7 or 8 mice per group and treatment begun when the mean tumor volume reaches ˜100 mm^3 Compound I is dosed IV and the chemotherapeutic agent is given IP. When the agents are given in combination, the chemotherapeutic agent is dosed 60 minutes prior to Compound I. The tumors are measured 2 times per week by electronic calipers to plot growth curves. Tumor growth delay is the increase in median time it takes for a tumor to reach 1000 mm^3 in volume when compared to a control group. Animals are also monitored for fluctuations in body weight and survival.

[2] = system: HCT-116 human colorectal carcinoma xenografts; assay: Tumor growth delay, HCT-116 xenografts; assay type: in vivo, CD-1 nu/nu mice; details: cisplatin 10 mg/kg IP, Compound I 5 mg/kg IV, alone or combined, 3 cycles separated by 7 days, time to 1000 mm^3 vs control
Description: as §4

[3] = system: Colo-205 human colorectal carcinoma xenografts; assay: Tumor growth delay, Colo-205 xenografts; assay type: in vivo, CD-1 nu/nu mice; details: cisplatin 5 mg/kg IP, Compound I 5 mg/kg IV, alone or combined, 3 cycles separated by 7 days, time to 1000 mm^3 vs control
Description: as §4

[4] = system: NCI-H460 human non-small cell lung cancer xenografts; assay: Tumor growth delay, NCI-H460 xenografts; assay type: in vivo, CD-1 nu/nu mice; details: Compound I 5 mg/kg IV, time to 1000 mm^3 vs control
Description: as §4

[5] = Compound I 330 nM, CPT-11 20 nM
[6] = Compound I 330 nM, CPT-11 20 nM, 48 hrs
[7] = Cmpd I 300 nM, 5-FU 5 μM, plates incubated for 72 hours

CCc1c2c(nc3ccc(OC(=O)N4CCC(N5CCCCC5)CC4)cc13)-c1cc3c(c(=O)n1C2)COC(=O)[C@]3(O)CC [CPT-11, irinotecan, reference compound]
% increase of caspase activity relative to untreated controls (HCT-116; [5]): 50%
% increase of caspase activity relative to untreated controls (Colo-205; Compound I 33 nM, CPT-11 20 nM): 38%
% increase of caspase activity relative to untreated controls (A2780; [6]): 153%

O=c1[nH]cc(F)c(=O)[nH]1 [Compound 5-FU, 5-fluorouracil, reference compound]
% increase of caspase activity relative to untreated controls (HCT-116; Cmpd I 12 nM, 5-FU 5 μM): 55%
% increase of caspase activity relative to untreated controls (AGS; 5-FU 3 μM, 48 hrs): 133%
% increase of caspase activity relative to untreated controls (MKN 45; [7]): 415%

O=C1NC(=O)C(c2cnc3ccccn23)=C1c1cn2c3c(cc(F)cc13)CN(C(=O)N1CCCCC1)CC2 [Compound I, 7-(2,5-dihydro-4-imidazo[1,2-a]pyridine-3-yl-2,5-dioxo-1H-pyrrol-3-yl)-9-fluoro-1,2,3,4-tetrahydro-2-(1-piperidinyl-carbonyl)-pyrrolo[3,2,1-jk][1,4]benzodiazepine]
% increase of caspase activity relative to untreated controls (HCT-116; Cmpd I 12 nM, 5-FU 5 μM): 47%
% increase of caspase activity relative to untreated controls (HCT-116; Cmpd I 60 nM, Gemcitabine 30 nM): 0%
% increase of caspase activity relative to untreated controls (HCT-116; Compound I 30 nM, pemetrexed 60 nM): 0%
% increase of caspase activity relative to untreated controls (HCT-116; Compound I 300 nM, cisplatin 5 μM): 16%
% increase of caspase activity relative to untreated controls (HCT-116; [5]): 53%
% increase of caspase activity relative to untreated controls (Colo-205; Compound I 33 nM, CPT-11 20 nM): 45%
% increase of caspase activity relative to untreated controls (Colo-205; Compound I 110 nM, cisplatin 5 μM): 12%
% increase of caspase activity relative to untreated controls (A2780; Cmpd I 300 nM, Carboplatin 5 μM, plates incubated for 72 hours): 55%
% increase of caspase activity relative to untreated controls (A2780; Compound I 30 nM, pemetrexed 60 nM, 48 hrs): 10%
% increase of caspase activity relative to untreated controls (A2780; Compound I 60 nM, cisplatin 5 μM, 48 hrs): 0%
% increase of caspase activity relative to untreated controls (A2780; [6]): 1%
% increase of caspase activity relative to untreated controls (A549; carboplatin 10 μM): 52%
% increase of caspase activity relative to untreated controls (A549; cisplatin 1 μM): 80%
% increase of caspase activity relative to untreated controls (NCI-H460; NCI H-460, Cmpd I 300 nM, Etoposide 1 μM): 222%
% increase of caspase activity relative to untreated controls (NCI-H460; NCI H-460, Cmpd I 300 nM, Gemcitabine 50 nM): 186%
% increase of caspase activity relative to untreated controls (NCI-H460; NCI H-460, Cmpd I 300 nM, Pemetrexed 500 nM): 38%
% increase of caspase activity relative to untreated controls (NCI-H460; NCI-H460, Compound I 100 nM, carboplatin 10 μM): 122%
% increase of caspase activity relative to untreated controls (NCI-H460; NCI-H460, Compound I 300 nM, cisplatin 1 μM): 99%
% increase of caspase activity relative to untreated controls (Calu-6; Calu 6, Cmpd I 33 nM, Cisplatin 2 μM): 154%
% increase of caspase activity relative to untreated controls (Calu-6; Calu-6, Compound I 30 nM, pemetrexed 60 nM): 139%
% increase of caspase activity relative to untreated controls (SKOV3): 0%
% increase of caspase activity relative to untreated controls (AGS; 5-FU 3 μM, 48 hrs): 0%
% increase of caspase activity relative to untreated controls (AGS; Cisplatin 5 μM, plates incubated for 72 hours): 0%
% increase of caspase activity relative to untreated controls (KATO III): 48%
% increase of caspase activity relative to untreated controls (MKN 45; [7]): 105%
% increase of caspase activity relative to untreated controls (MKN 45; Cmpd I 600 nM, Cisplatin 10 μM, 48 hrs): 162%
Tumor Growth Delay Mean ± Standard Error [1]: -0.3 ± 1.4 days
Tumor Growth Delay Mean ± Standard Error [2]: 2 ± 2.2 days
Tumor Growth Delay Mean ± Standard Error [3]: 10.9 ± 2.2 days
Tumor Growth Delay Mean ± Standard Error ([4]; Carboplatin 50 mg/kg IP, alone or combined, every 14 days × 3 cycles): 3 ± 1.4 days
Tumor Growth Delay Mean ± Standard Error ([4]; carboplatin 10 mg/kg IP, pemetrexed 300 mg/kg IP, every 14 days for 3 cycles): 1.4 ± 3.8 days

COc1cccc2c1C(=O)c1c(O)c3c(c(O)c1C2=O)C[C@@](O)(C(=O)CO)C[C@@H]3O[C@H]1C[C@H](N)[C@H](O)[C@H](C)O1 [Doxorubicin, doxorubicin, reference compound]
% increase of caspase activity relative to untreated controls (SKOV3): 184%
